Measurements from PubChem BioAssay AID2252 (Southern Research Specialized Biocontainment Screening …, 2010).
Several values for one entry are separate records, joined by “and”; a condition that tells them apart may be missing. Equal entries are not always repeated.

The compounds below were run on THP-1 viability, CellTiter-Glo luminescence, 72 h (assay: PubChem AID 2252).

| SMILES | EC50 |
| --- | --- |
| CN1CCN(CCCN2c3ccccc3Sc3ccc(Cl)cc32)CC1 | 14.7 µM and 10.2 µM |
| COc1cc(CNCCc2c[nH]c3ccccc23)ccc1OCc1ccccc1F | 13.1 µM |
| c1ccc2cc(CSCc3nc4ccccc4[nH]3)ccc2c1 | 48.5 µM |
| Oc1ccc(C[C@@H]2CNCCN2CCCCC2CCCCC2)cc1 | 8.53 µM |
| CNC(CC(=O)c1ccc([N+](=O)[O-])cc1)C(Cl)(Cl)Cl (stereo not drawn) | 9.95 µM |
| Cc1cc(N2CCC(C)CC2)nc2cccc(O)c12 | 26.4 µM |
| Cc1ccc(C(=O)NNC(=S)NC(=O)c2ccccc2)cc1 | 8.09 µM |
| COc1cc(CNc2ccc(N3CCN(C(C)=O)CC3)cc2)ccc1OCc1ccccc1 | 6.5 µM |
| CN(C)CCNC(=O)/C(=C/c1ccc(-c2ccc(Cl)cc2)o1)NC(=O)c1ccccc1 | 11.3 µM |
| Oc1ccc(N=Nc2ccc(Br)cc2)c(O)c1 | 17.8 µM |
| CCCC(=O)c1c(NC)cc(C)oc1=O | 15.9 µM |
| Oc1c(CN2CCOCC2)cc(COCc2ccccc2)c2cccnc12 | 2.24 µM |
| CN1CCN(CC(=O)N2CCn3c4c(c5cc(C6CCCCC6)ccc53)CCCC42)CC1 (stereo not drawn) | 6.66 µM |
| Cc1cc([N+](=O)[O-])cc(/C=N\NC(=O)C2COc3ccccc3O2)c1O (stereo not drawn) | 14.3 µM |
| CCN(CC)CCSc1nnc2c3ccccc3n(Cc3ccccc3)c2n1 | 26.3 µM |
| c1ccc2c(c1)OC(CCCN1CCCCC1)c1ccccc1S2 (stereo not drawn) | 21.8 µM |
| CC(NCC(O)COCCC12CC3CC(CC(C3)C1)C2)c1ccccc1 (stereo not drawn) | 9.86 µM |
| NC1=C(Br)C(=O)c2ccccc2C1=O | 9 µM |
| O=c1[nH]cc(F)c(=O)[nH]1 | 6.24 µM |
| CCc1ccc(N2CC(C(=O)N/N=C/c3cc([N+](=O)[O-])ccc3O)CC2=O)cc1 (stereo not drawn) | 11.3 µM |
| Cc1cccc(Nc2c3c(nc4ccccc24)CCC3)c1 | 6.27 µM |
| O=C(CC(=O)c1c(F)cccc1Cl)c1ccccc1O | 27.4 µM |
| O=C(CCN1CCN(c2ccccc2)CC1)c1ccc(Br)cc1 | 38.2 µM |
| Fc1ccc(Nc2c3c(nc4ccccc24)CCC3)cc1 | 6.33 µM |

| SMILES | EC50 |
| --- | --- |
| COc1cc(/C=C/[N+](=O)[O-])ccc1O | 12.1 µM |
| OC(CNCCc1ccccc1)COc1ccc(OCC(O)CNCCc2ccccc2)cc1 (stereo not drawn) | 7.35 µM |
| c1ccc(CNc2nc(N3CCN(Cc4ccccc4)CC3)nc3ccccc23)cc1 | 8.41 µM |
| CCCCCCCCC1=NCCc2c1[nH]c1ccccc21 | 15 µM |
| C[C@H]1c2cccc(O)c2C(O)=C2C(=O)[C@]3(O)C(O)=C(C(N)=O)C(=O)[C@@H](N(C)C)[C@@H]3[C@@H](O)[C@@H]21 | 29 µM |
| CC1=NN(c2nc3ccccc3[nH]2)C(=O)C1Cc1ccccc1 (stereo not drawn) | 1.85 µM |
| C/C(Cn1nnc([N+](=O)[O-])n1)=N\NC(=O)c1ccccc1 | 40 µM |
| OC(CNCc1ccco1)Cn1c2ccc(Br)cc2c2cc(Br)ccc21 (stereo not drawn) | 9.67 µM |
| c1ccc2c(SCc3cn4ccccc4n3)nncc2c1 | < 0.1 µM |
| O=C(N/N=C/c1ccc([N+](=O)[O-])s1)C(O)c1ccccc1 (stereo not drawn) | 12.9 µM |
| CCN(CC)C(=S)SSC(=S)N(CC)CC | 21.9 µM |
| O=C(CN1CC[n+]2c(-c3cccs3)csc21)c1ccc(-c2ccccc2)cc1 | 13 µM |
| Cc1ccc(C(C[N+](=O)[O-])Sc2ccc(N)cc2)cc1 (stereo not drawn) | 21.8 µM |
| CN(C)c1ccc(O)c2c1CC1CC3C(N(C)C)C(=O)C(C(N)=O)=C(O)[C@@]3(O)C(=O)C1=C2O (stereo partly drawn) | 33.7 µM |
| CCn1ncc(/C=N\NC(=O)c2csc3ccccc23)c1C | 19.1 µM |
| COc1cc(/C=N/N=C(N)N)ccc1OCc1ccc(Cl)cc1 | 7.26 µM |
| CCCCNC(=S)Nc1ccc([N+](=O)[O-])cc1 | 28.8 µM |
| O=C(Cn1cc[n+](CC(=O)c2ccc(Cl)cc2Cl)c1)c1ccc(Cl)cc1Cl | 16.1 µM |
| NC1=NC[C@H](Cc2ccc(O)cc2)N1CCCCC1CCCCC1 | 1.73 µM |
| COC(=O)C1C(O)C(C)C(O)C(C)/C=C\C=C(/C)C(=O)Nc2c(C)c(OC(C)=O)c3c(c2O)C(=O)C(C)=C2OCOC(=C23)/C(C)=C/C(C)(O)C(O)C(C)C1O (stereo not drawn) | < 0.1 µM |
| CCCCc1ccc2[nH]cc(CCN)c2c1 | 7.81 µM |
| c1cnc2c(c1)ccc1cccnc12 | 3.14 µM and 2.97 µM |
| O=C(/C=C/c1ccccc1Cl)c1ccccc(=O)c1O | 12.9 µM |
| O=C(O)c1cn(C2CC2)c2cc(N3CCN(S(=O)(=O)c4ccc5c(c4)OCCO5)CC3)c(F)cc2c1=O | < 0.1 µM |

| SMILES | EC50 |
| --- | --- |
| COc1ccc(/C=C/c2cc[n+](C(=O)Cc3ccccc3)cc2)cc1 | 3.92 µM |
| COc1ccc(OCC(=O)Nc2ccc3c(c2)nc(CCN2CCC(C)CC2)n3C)cc1 | 35.1 µM |
| COc1ccc2[nH]cc(C(=O)CCl)c2c1 | 7.78 µM |
| OCCNc1nc(Nc2ccccc2)nc2ccccc12 | 3.06 µM |
| Cc1cc([N+](=O)[O-])nn1CC(=O)N/N=C/c1ccccc1O | 6.62 µM |
| Cc1cc(C)n(-c2nc(SCCN(C)C)c3c4c(sc3n2)CCCC4)n1 | 3.25 µM |
| Cc1c2ccncc2c(C)c2c1[nH]c1ccccc12 | 2.72 µM |
| O=C(O)c1ccc(NC2=C(Cl)C(=O)c3ccccc3C2=O)cc1 | 11.5 µM |
| CCc1ccc2c(c1)Sc1ccccc1CC2N1CCN(C)CC1 (stereo not drawn) | 11.8 µM |
| N=C1c2ccccc2CN1c1ncccn1 | < 0.1 µM |
| CCCCCNc1nc(N2CCCC2)c2c(c1C#N)CCN(C)C2 | 23.3 µM |
| CCOc1ccc(Nc2nc(N)c3ccccc3n2)cc1 | 6.96 µM |
| S=C(Nc1cc(Cl)cc(Cl)c1)NC1CCN(Cc2ccccc2)CC1 | 14.6 µM |
| CC(=O)NC(c1cccs1)c1cc([N+](=O)[O-])c2cccnc2c1O (stereo not drawn) | 10.5 µM |
| Oc1ccccc1-c1cc(C(F)(F)C(F)F)[nH]n1 | 46.4 µM |
| CCOC(=O)c1c(C)sc2c1N(C(C)=O)c1cc(Cl)ccc1S2 | 44.1 µM |
| Cc1cc(C)c(OCCCCNCc2ccccc2)c(Cl)c1 | 12.2 µM |
| CN(C)CCCNC(=S)NCC(c1ccc(Cl)cc1Cl)c1c[nH]c2ccccc12 (stereo not drawn) | 3.66 µM |
| CCN1/C(=C/c2cc[n+](C)cc2)C=Cc2cc(C)ccc21 | 6.78 µM |
| CN1CCN(C(c2ccc(Br)cc2)c2cc(Cl)c3cccnc3c2O)CC1 (stereo not drawn) | 2 µM |
| CCN(CC)c1ccc(CNc2nc3ccccc3n2CCN2CCCCC2)cc1 | 16.5 µM |
| Fc1ccc(Nc2nc(NCc3ccco3)c3ccccc3n2)cc1 | 5.9 µM |
| COc1ccccc1C(C[N+](=O)[O-])c1c(N)n(C)c(=O)n(C)c1=O (stereo not drawn) | 8.91 µM |
| Cc1nn(Cc2ccccc2Cl)c2sc(C(=O)Nc3ccccc3N3CCOCC3)cc12 | 20.4 µM |

| SMILES | EC50 |
| --- | --- |
| CCCCOc1ccc(C(=O)OC2CC(C)N(C)CC2C)cc1 (stereo not drawn) | 30.7 µM |
| O=C(Nc1nc(-c2ccccn2)cs1)c1ccc(Cl)s1 | 0.84 µM |
| COc1cc([N+](=O)[O-])cc(/C=N/NC(=O)C(O)(c2ccccc2)c2ccccc2)c1O | 25.4 µM |
| O=C(CC(=O)c1cc(Cl)ccc1O)c1ccccc1 | 12.3 µM |
| COc1ccc(CNCCc2ccc(Cl)cc2)cc1OCc1ccccc1 | 24.5 µM |
| CCCN(C(=O)CSc1nc2ccccc2n1CC)C1CCS(=O)(=O)C1 (stereo not drawn) | 14.8 µM |
| O=C(Nc1ccccc1)Nc1cccc(Cl)c1 | 43.7 µM |
| c1ccc2c(NCCc3c[nH]c4ccccc34)c3ccccc3nc2c1 | 4.35 µM |
| CNC[C@H](CC1CCCCC1)NC[C@H](Cc1ccccc1)NCCC12CC3CC(CC(C3)C1)C2 | 3.49 µM |
| CCCCCOc1ccc(CSC(=N)N)cc1[N+](=O)[O-] | 14 µM |
| COc1cccc(CNCCc2c[nH]c3ccccc23)c1OCc1ccccc1 | 6.18 µM |
| N=c1c2c(-c3ccccc3)c(-c3ccccc3)n(Cc3ccco3)c2ncn1CCCn1ccnc1 | 7.71 µM |
| CCN(CC)CCn1c(=N)n(CC(O)COc2cccc(C)c2)c2ccccc21 (stereo not drawn) | 16.2 µM |
| c1ccc2c(c1)C(=NC1CCCCC1)NC2=NC1CCCCC1 | 4.25 µM |
| CCOC(=O)C1=C(O)c2ccccc2C(=O)/C1=C\c1ccc(C)cc1 | 23.3 µM |
| O=C(N/N=C/c1c[nH]c2ccccc12)c1cc2ccccc2o1 | 21.3 µM |
| OCCCNc1c2ccccc2nc2ccccc12 | 2.13 µM |
| Cc1ccccc1C(=O)Nc1cccc(C(=O)N/N=C/c2cc(Cl)cc([N+](=O)[O-])c2O)c1 | 12.4 µM |
| COC(=O)C1=C(C)N(Cc2ccccc2)C(=NCc2cccc(C(F)(F)F)c2)N[C@H]1c1cccc(F)c1 | 5.3 µM |
| COc1cc(Br)cc(C=Nc2cccc(C(F)(F)F)c2)c1O | 50 µM |
| NC(N)=N/N=C/c1ccc(OCc2ccccc2Cl)cc1 | 3.15 µM |
| COc1ccccc1N1CCN(Cc2ccc(O)c3ncccc23)CC1 | 2.61 µM |
| CC[n+]1c(/C=C/N(C)c2ccccc2)n(-c2ccccc2)c2ccc(-c3nc4ccccc4s3)cc21 | 0.44 µM |
| c1ccc(CN2CCC(Nc3nc(-c4ccccc4)nc4ccccc34)CC2)cc1 | 17.6 µM |

| SMILES | EC50 |
| --- | --- |
| O=C(N/N=C/c1cc(Cl)ccc1O)c1ccncc1 | 6.13 µM |
| c1ccc2c(c1)nc(N1CCOCC1)c1c3ccccc3[nH]c21 | < 0.1 µM |
| Cc1ccc(Nc2c3c(nc4ccccc24)CCC3)cc1 | 9.1 µM |
| O=C(N/N=C/c1ccc([N+](=O)[O-])s1)c1ccccc1Br | 15.2 µM |
| Cc1[nH]c2ccccc2c1/C=C/c1nc2ccccc2c(=O)[nH]1 | 14 µM |
| CCCCCCCCCCCCCCCCn1cc[n+](C)c1 | 0.74 µM |
| CSc1ccc2c(c1)N(CCC1CCCCN1C)c1ccccc1S2 (stereo not drawn) | 13 µM |
| O=C(/C=C/c1ccc(Cl)cc1)NCCCn1ccnc1 | < 0.1 µM |
| CC(=O)c1cc(O)c2ccccc2c1O | 41.2 µM |
| NC1=NC[C@@H](Cc2ccc(O)cc2)N1CCCCC1CCCCC1 | 6.98 µM |
| CCn1cc(C(=O)NCc2ccc3c(c2)OCO3)c(=O)c2cc(F)c(N3CCN(C(=O)c4ccco4)CC3)cc21 | 19.9 µM |
| O=C(C[n+]1cc(Br)cc2ccccc21)c1ccc(F)cc1 | < 0.1 µM |
| CCCOc1ccc(-c2cn3ccccc3n2)cc1 | 43.5 µM |
| CN(C)CCCNc1cc(C(C)(C)C)nc2c(-c3ccc(Cl)cc3)cnn12 | 7.99 µM |
| O=S1(=O)CC=C(CSc2nc3ccccc3[nH]2)C1 | < 0.1 µM |
| CC1(C)Oc2ccc3ccc(=O)oc3c2/C(=C/NCCN/C=C2\C(=O)C(C)(C)Oc3ccc4ccc(=O)oc4c32)C1=O | < 0.1 µM |
| O=C(N/N=C\c1cccc([N+](=O)[O-])c1O)C1COc2ccccc2O1 (stereo not drawn) | 25.4 µM |
| O=C(Nc1cccc(C2=NCCN2)c1)Nc1cccc(C2=NCCN2)c1 | 13.2 µM |
| CCCCCCCCCCCCCCCC[n+]1ccc(C(N)=O)cc1 | 0.68 µM |
| Cc1ccc(NC(=O)c2ccc([N+](=O)[O-])o2)c(C)c1 | 12.1 µM |
| O=C(N/N=C\c1ccc(Cl)s1)c1cccs1 | 32.7 µM |
| Clc1ccc(CN2CCc3c([nH]c4ccccc34)C2)cc1Cl | 8.16 µM |
